Tests used:
[1] = system: CCRF-CEM; assay: Tested in vitro for cellular cytotoxicity against human T-cell derived lymphoblastic leukemia (CCRF-CEM) cells; type: functional, cell-based
[2] = target: T1, Trifunctional purine biosynthetic protein adenosine-3 (Mus musculus, UniProt Q64737); assay: Tested in vitro for its inhibition of trifunctional glycinamide ribonucleotide formyltransferase (GARFT) isolated from murine L1210 leukemia cells
T1 sequence (Q64737 whole entry): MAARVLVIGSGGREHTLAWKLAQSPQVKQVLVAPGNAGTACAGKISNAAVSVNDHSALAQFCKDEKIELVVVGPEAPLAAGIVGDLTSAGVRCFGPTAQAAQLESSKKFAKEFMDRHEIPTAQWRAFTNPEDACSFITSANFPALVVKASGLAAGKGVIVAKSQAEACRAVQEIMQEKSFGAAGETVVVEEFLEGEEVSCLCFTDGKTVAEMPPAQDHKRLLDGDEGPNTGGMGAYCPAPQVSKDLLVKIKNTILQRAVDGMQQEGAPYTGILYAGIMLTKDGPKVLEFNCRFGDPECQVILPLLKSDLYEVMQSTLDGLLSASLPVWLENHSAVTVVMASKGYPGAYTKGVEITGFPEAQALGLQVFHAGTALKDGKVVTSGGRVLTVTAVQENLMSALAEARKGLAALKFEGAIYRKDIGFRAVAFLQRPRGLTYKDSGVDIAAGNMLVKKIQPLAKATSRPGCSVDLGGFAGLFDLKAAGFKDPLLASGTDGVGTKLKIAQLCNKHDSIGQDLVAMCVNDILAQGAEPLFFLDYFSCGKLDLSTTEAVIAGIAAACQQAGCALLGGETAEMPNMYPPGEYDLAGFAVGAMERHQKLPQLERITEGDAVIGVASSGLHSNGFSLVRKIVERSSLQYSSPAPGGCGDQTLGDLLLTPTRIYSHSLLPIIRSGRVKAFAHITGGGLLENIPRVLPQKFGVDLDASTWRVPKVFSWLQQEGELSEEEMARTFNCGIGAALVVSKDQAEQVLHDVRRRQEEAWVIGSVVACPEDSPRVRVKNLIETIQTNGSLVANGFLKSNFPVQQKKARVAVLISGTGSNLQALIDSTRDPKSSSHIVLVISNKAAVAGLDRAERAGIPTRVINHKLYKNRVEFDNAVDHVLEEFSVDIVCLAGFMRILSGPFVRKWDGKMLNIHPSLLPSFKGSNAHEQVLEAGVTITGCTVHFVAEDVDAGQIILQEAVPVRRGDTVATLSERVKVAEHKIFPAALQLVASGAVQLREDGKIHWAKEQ

[3] = target: T2, Folylpolyglutamate synthase, mitochondrial (Homo sapiens) (UniProt Q05932); assay: Ratio of Vmax to Km value and expressed as k'; settings: Sus scrofa
T2 sequence (whole entry): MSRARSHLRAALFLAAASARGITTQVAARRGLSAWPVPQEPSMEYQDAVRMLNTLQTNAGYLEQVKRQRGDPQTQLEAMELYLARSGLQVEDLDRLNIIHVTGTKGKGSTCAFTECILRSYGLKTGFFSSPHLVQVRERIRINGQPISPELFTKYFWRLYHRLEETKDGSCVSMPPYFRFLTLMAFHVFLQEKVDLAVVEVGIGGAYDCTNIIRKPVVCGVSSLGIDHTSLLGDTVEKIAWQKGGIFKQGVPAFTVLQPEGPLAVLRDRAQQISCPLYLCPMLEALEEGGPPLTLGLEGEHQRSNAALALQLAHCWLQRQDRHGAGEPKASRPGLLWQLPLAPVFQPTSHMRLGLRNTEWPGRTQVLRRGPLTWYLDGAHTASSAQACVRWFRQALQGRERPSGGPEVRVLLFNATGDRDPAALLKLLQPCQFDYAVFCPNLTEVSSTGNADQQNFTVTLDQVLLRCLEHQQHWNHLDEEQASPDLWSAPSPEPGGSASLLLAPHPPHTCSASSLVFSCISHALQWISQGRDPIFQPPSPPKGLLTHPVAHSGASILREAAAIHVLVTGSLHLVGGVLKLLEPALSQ

[4] = substrate: Nc1cc2c(c(O)n1)CC(CCc1ccc(C(=O)N[C@@H](CCC(=O)O)C(=O)O)cc1)CCN2; settings: Sus scrofa
Description: In vitro Folyl-poly-gamma-glutamyl synthetase (FPGS) affinity

Molecule	Ki [2]	IC50 [1]	k' [3]	Km [4]
Nc1cc2c(c(O)n1)CC(CCc1ccc(C(=O)N[C@@H](CCC(=O)O)C(=O)O)cc1)CCN2 (some centres undefined)	0.147 µM	0.047 µM	20	–
Folylpolyglutamate synthase, mitochondrial (Homo sapiens), Q05932 (protein) MSRARSHLRAALFLAAASARGITTQVAARRGLSAWPVPQEPSMEYQDAVRMLNTLQTNAGYLEQVKRQRGDPQTQLEAMELYLARSGLQVEDLDRLNIIHVTGTKGKGSTCAFTECILRSYGLKTGFFSSPHLVQVRERIRINGQPISPELFTKYFWRLYHRLEETKDGSCVSMPPYFRFLTLMAFHVFLQEKVDLAVVEVGIGGAYDCTNIIRKPVVCGVSSLGIDHTSLLGDTVEKIAWQKGGIFKQGVPAFTVLQPEGPLAVLRDRAQQISCPLYLCPMLEALEEGGPPLTLGLEGEHQRSNAALALQLAHCWLQRQDRHGAGEPKASRPGLLWQLPLAPVFQPTSHMRLGLRNTEWPGRTQVLRRGPLTWYLDGAHTASSAQACVRWFRQALQGRERPSGGPEVRVLLFNATGDRDPAALLKLLQPCQFDYAVFCPNLTEVSSTGNADQQNFTVTLDQVLLRCLEHQQHWNHLDEEQASPDLWSAPSPEPGGSASLLLAPHPPHTCSASSLVFSCISHALQWISQGRDPIFQPPSPPKGLLTHPVAHSGASILREAAAIHVLVTGSLHLVGGVLKLLEPALSQ	–	–	–	39 µM

The next lines start with results.

Ki [2]	Molecule	IC50 [1]	k' [3]	Km [4]
0.12 µM	Nc1nc2c(c(=O)[nH]1)C[C@H](CCc1ccc(C(=O)NC(CCC(=O)O)C(=O)O)cc1)CN2 (some centres undefined)	0.016 µM	–	–
0.0597 µM	Nc1nc2c(c(=O)[nH]1)C[C@@H](CCc1ccc(C(=O)N[C@@H](CCC(=O)O)C(=O)O)cc1)CN2 [LOMETREXOL]	0.0152 µM	59	–
